# Where a name gives a salt, the structure may show the parent alone.
# How the values were obtained:
# Assay type in all cases: cell-based, human
# [1] = system: hESCs; test: Neural induction of hESC under adherent conditions, PAX6 expression; conditions: 10 uM to 30 nM, each added to 10 uM of SB431542
# Protocol: The inventors contemplated that establishing an even cell distribution is critical for inducing homogenous neural differentiation of hESCs. To this end, undifferentiated hESC were dissociated into single cells and re-plated onto Matrigel coated dishes in conditioned medium supplement with ROCK inhibitor, Y-27632 (Wananabe et at, 2007). After 72 hours cells were switched from hESC conditions to knock-out serum replacement medium (KSR) containing either Noggin, SB4315242, or both factors and allowed to differentiate for a total of 11 days (FIG. 1.a.). […] Neural induction was monitored by expression of PAX6, an early marker of neuroectodermal differentiation ([…], et al., Annu Rev Neurosci 20:483 (1997). As an alternative to the specific Smad inhibitors used here, it is possible to block both distinct Smad pathways using alternative inhibitors or mechanisms. Dorsomorphin is a small molecule alternative to Noggin, targeting the same pathway. Concentrations ranged from 10 uM to 30 nM, each individual amount added to 10 uM of SB431542. […] Quantitative Real-Time (Dual SMAD). […] For each sample, 1 ug of total RNA was treated for DNA contamination and reverse transcribed using the Quantitect RT kit (Qiagen). Amplified material was detected using Quantitect SYBR green probes and PCR kit (Qiagen) on a Mastercycler RealPlex2 (Eppendorf). […]
# [2] = system: NSB derived neural precursor cells; test: Conditioned media patterning of naive neural progenitor cells, qRT-PCR
# From the text: The FP has important functional roles during development in neural patterning and axonal path finding (Jessell, 2000). To assess the functional properties of hESCs derived FP conditioned media was isolated at days 9 and 11 and tested for expression of Netrin-1 in the medium using ELISA (FIG. 3A). Under normal NSB conditions, Netrin-1 is detectable at Day 9 and decreases at Day 11 while in the NSB+SHH condition, there is a 3.5 fold increase in Netrin-1 levels, increasing at Day 11 (FIG. 3B). SHH is a critical patterning factor secreted by FP cells and specifying ventral cell types in a dose-dependent manner. To test if hESCs derived FP secretes factors that can specify ventral precursor domains, conditioned media (CM) was isolated at Days 9 and 11 of the differentiation. At Day 6, exogenous SHH was removed and cultures were washed to eliminate any exogenously added SHH from the medium. Naïve neural progenitor cells were isolated at Day 11 of the control (NSB) protocol and cultured with either NSB CM or FP CM. After Day 5 of culture in the presence of CM, the inventors probed for the expression of ventral precursor markers and expression of the SHH responsive gene GLI2. […] Increase in the expression of ventral markers was confirmed at the level of protein (FIG. 3C′).
# [3] = system: hESCs; test: Placode induction from hESC (Six1 immunocytochemistry, qRT-PCR); conditions: early addition to SB431542 (1 μM) treated hESCs
# From the text: Sensory placodes are developmental structures formed at the interface of early neuroectodermal and non-neural ectoderm tissue. To address whether the N-SB culture system is suitable for the derivation of placodal cells, The inventors first established a set of markers to identify placode identity in human embryonic stem cells (hESCs)-derived cultures. From studies in other model organisms, The inventors postulated a number of candidate markers to identify human placodal precursor during hESC differentiation including member of the Six, Eya, and Dlx family of transcription factors. Six1 marks the pre-placodal region and placodal cells in model organisms but is also expressed in skeletal muscle precursors.
# 276(1): p. 1-15, herein incorporated by reference. To test whether addition of exogenous BMPs enhances the derivation of Six1+ cells, The inventors exposed SB431542 (1 μM) treated hESCs to various concentration of BMP4. […] 27(3): p. 275-80; Xu, et al., Nat Biotechnol, 2002. 20(12): p. 1261-4, herein incorporated by reference.
# We next explored whether simple withdrawal of the BMP inhibitor noggin during N-SB differentiation may enhance the emergence of placodal fates by de-repressing endogenous BMP signaling. […]
molecule,measurement,setting,value
"c1cc(-c2cnn3cc(-c4ccc(OCCN5CCCCC5)cc4)cnc23)ccn1 [Dorsomorphin, 6-[4-[2-(1-Piperidinyl)ethoxy]phenyl]-3-(4-pyridinyl)-pyrazolo[1,5-a]pyrimidine dihydrochloride]",efficiency of neural induction based on the percentage of PAX6+ cells,[1],not as high as used with Noggin/SB431542
CC1=C2C[C@H]3[C@@H](CC=C4C[C@@H](O)CC[C@@]43C)[C@@H]2CC[C@]12O[C@@H]1C[C@H](C)CN[C@H]1[C@H]2C [cyclopamine],"NKX2.1, NKX6.1 and GLI2 expression induced by FP conditioned media",[2],significantly reduced
"BMP4: bone morphogenetic protein-4, exogenous BMP (protein, UniProt P12644 293-408, looked up) Bone morphogenetic protein 4: SPKHHSQRARKKNKNCRRHSLYVDFSDVGWNDWIVAPPGYQAFYCHGDCPFPLADHLNSTNHAIVQTLVNSVNSSIPKACCVPTELSAISMLYLDEYDKVVLKNYQEMVVEGCGCR",cdx2 induction / trophoectodermal differentiation,[3],induction of cdx2

# Reference: patent publication US11560546B2, “Methods for neural conversion of human embryonic stem cells” (MEMORIAL SLOAN KETTERING CANCER CENTER, priority 2009, dated 2023)
